The target in the assay is Carbonic anhydrase 9 (Homo sapiens, UniProt Q16790).

Molecules are shown by their SMILES.

Description: Inhibition of recombinant human carbonic anhydrase-9 assessed as reduction in CO2 hydration preincubated for 15 mins followed by CO2 addition measured for 10 to 100 secs by stopped-flow assay

In general, Ki refers to a dissociation constant, usually derived from enzyme kinetics or from competition with a known ligand. Low values mean higher affinity, high ones lower affinity. The compound `Cc1cccc(C(=O)NC(=[Se])Nc2cccc(S(N)(=O)=O)c2)c1` returned a Ki of 43.9 nM.

As to `CC(=O)Oc1ccccc1C(=O)NC(=[Se])Nc1ccc(S(N)(=O)=O)cc1`, the Ki came out at 13.6 nM. As for `NS(=O)(=O)c1ccc(CCNC(=[Se])NC(=O)c2ccc3c(c2)OCO3)cc1`, the figure is 105 nM.

`NS(=O)(=O)c1ccccc1NC(=[Se])NC(=O)c1ccccc1` had a Ki of 284 nM. As for `NS(=O)(=O)c1cccc(NC(=[Se])NC(=O)c2ccccc2)c1`, the figure is 374 nM.

As to `Cc1cccc(C(=O)NC(=[Se])NCCc2ccc(S(N)(=O)=O)cc2)c1`, the Ki was found to be 146 nM.

As to `NS(=O)(=O)c1ccc(NC(=[Se])NC(=O)c2ccccc2)cc1`, the Ki is 4.6 nM.

In turn, `CC(=O)Oc1ccccc1C(=O)NC(=[Se])Nc1cc(S(N)(=O)=O)ccc1O` registered a Ki of 80.8 nM. As for `NS(=O)(=O)c1cccc(NC(=[Se])NC(=O)c2ccc(C(F)(F)F)cc2C(F)(F)F)c1`, the figure is 4700 nM. The compound `NS(=O)(=O)c1ccc(CCNC(=[Se])NC(=O)c2ccc(-c3ccccc3)cc2)cc1` yielded a Ki of 4870 nM. `Cc1cc(C(=O)NC(=[Se])Nc2cc(S(N)(=O)=O)ccc2O)ccc1Br` showed a Ki of 5.8 nM.

Compound `NS(=O)(=O)c1ccc(NC(=[Se])NC(=O)c2cc(Br)cc(OC(F)(F)F)c2)cc1` had a Ki of 3.5 nM. As for `NS(=O)(=O)c1ccc(CCNC(=[Se])NC(=O)c2ccccc2)cc1`, the figure is 7.2 nM; as for `NS(=O)(=O)c1ccc(O)c(NC(=[Se])NC(=O)c2ccc(-c3ccccc3)cc2)c1`, 69.1 nM. `CCCCCCCc1ccc(C(=O)NC(=[Se])Nc2ccc(S(N)(=O)=O)cc2)cc1` came in with a Ki of 25.1 nM. This Ki lies about 2.8-fold lower than the previous one.

As to `NS(=O)(=O)c1ccc(NC(=[Se])NC(=O)c2ccc3c(c2)OCO3)cc1`, the Ki turned out to be 129 nM. This Ki is about 5.1-fold higher than that of the compound before.

These data come from ChEMBL document CHEMBL4033706, “Synthesis of novel acyl selenoureido benzensulfonamides as carbonic anhydrase I, II, VII and IX inhibitors” (Bioorg Med Chem, 2017).
